Experimental data: patent US6737383B1, “Herbicidal oxadiazolidines” (priority 1999, dated 2004)

Assays:
rape = test: Test B pre/postemergence rape; assay type: in vivo, Brassica napus
Method in brief: (§1)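 Response is a visual 0-to-10 score relative to untreated plants, where 0 means no effect and 10 means complete control, taken twelve to sixteen days after application. Treatments went onto soil at planting and onto foliage of 1- to 4-leaf plants, using a surfactant-containing non-phytotoxic solvent.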

giant foxtail = test: Test B pre/postemergence giant foxtail; assay type: in vivo, Setaria faberii
Method in brief: as §1

sugar beet = test: Test B pre/postemergence sugar beet; assay type: in vivo, Beta vulgaris
Method in brief: as §1

morningglory = test: Test B pre/postemergence morningglory; assay type: in vivo, Ipomoea hederacea
Method in brief: as §1

blackgrass = test: Test B pre/postemergence blackgrass; assay type: in vivo, Alopecurus myosuroides
Method in brief: as §1

cocklebur = test: Test B pre/postemergence cocklebur; assay type: in vivo, Xanthium strumarium
Method in brief: as §1

wild oat = test: Test B pre/postemergence wild oat; assay type: in vivo, Avena fatua
Method in brief: as §1

bedstraw = test: Test B pre/postemergence bedstraw; assay type: in vivo, Galium aparine; conditions: for Bedstraw plant response rating: 10 is complete control
Method in brief: as §1

soybean = test: Test B pre/postemergence soybean; assay type: in vivo, Glycine max
Method in brief: as §1

surinam grass = test: Test B pre/postemergence surinam grass; assay type: in vivo, Brachiaria decumbens
Method in brief: as §1

pigweed = test: Test B pre/postemergence pigweed; assay type: in vivo, Amaranthus retroflexus
Method in brief: as §1

corn = test: Test B pre/postemergence corn; assay type: in vivo, Zea mays
Method in brief: as §1

velvetleaf = test: Test B pre/postemergence velvetleaf; assay type: in vivo, Abutilon theophrasti
Method in brief: as §1

wheat = test: Test B pre/postemergence wheat; assay type: in vivo, Triticum aestivum
Method in brief: as §1

purple nutsedge = test: Test B pre/postemergence purple nutsedge; assay type: in vivo, Cyperus rotundus
Method in brief: as §1

crabgrass = test: Test B pre/postemergence crabgrass; assay type: in vivo, Digitaria sanguinalis
Method in brief: as §1

[1] = Postemergence, Rate 62 g/ha, scale of 0 to 10, 0 is no effect, 10 is complete control
[2] = Postemergence, Rate 125 g/ha, scale 0 to 10, 0 is no effect, 10 is complete control
[3] = Postemergence, Rate 500 g/ha, scale 0 to 10, 0 is no effect, 10 is complete control
[4] = Preemergence, Rate 62 g/ha, scale of 0 to 10 where 0 is no effect and 10 is complete control
[5] = Preemergence, Rate 125 g/ha, scale 0 to 10, 0 is no effect, 10 is complete control
[6] = Preemergence, Rate 500 g/ha, scale of 0 to 10 where 0 is no effect and 10 is complete control
[7] = Rate 250 g/ha, Postemergence, scale of 0 to 10 where 0 is no effect and 10 is complete control

CCC=CCn1c(=O)on(C(=O)N(c2ccc(F)cc2F)C(C)C)c1=O [Compound 523]
Rape plant response rating (rape; [1]): 0 | Rape plant response rating (rape; [2]): 0 | Plant response rating, Rape (rape; [3]): 2 | Plant response rating, Rape (rape; [4]): 0 | Rape plant response rating (rape; [5]): 0 | Rape plant response rating (0 to 10 scale) (rape; Preemergence, Rate 250 g/ha): 4 | Rape plant response rating (rape; [6]): 7 | Plant response rating, Rape (rape; [7]): 2 | Giant foxtail plant response rating (giant foxtail; [1]): 2 | Giant foxtail plant response rating (giant foxtail; [2]): 2 | Plant response rating, Giant foxtail (giant foxtail; [3]): 6 | Plant response rating, Giant foxtail (giant foxtail; [4]): 10 | Giant foxtail plant response rating (giant foxtail; [5]): 10 | Giant foxtail plant response rating (0 to 10 scale) (giant foxtail; Preemergence, Rate 250 g/ha): 10 | Giant foxtail plant response rating (giant foxtail; [6]): 10 | Plant response rating, Giant foxtail (giant foxtail; [7]): 4 | Sugarbeets plant response rating (sugar beet; [1]): 0 | Sugarbeets plant response rating (sugar beet; [2]): 0 | Plant response rating, Sugarbeets (sugar beet; [3]): 0 | Plant response rating, Sugarbeets (sugar beet; [4]): 3 | Sugarbeets plant response rating (sugar beet; [5]): 4 | Sugarbeets plant response rating (0 to 10 scale) (sugar beet; Preemergence, Rate 250 g/ha): 7 | Sugarbeets plant response rating (sugar beet; [6]): 9 | Plant response rating, Sugarbeets (sugar beet; [7]): 0 | Morningglory plant response rating (morningglory; [1]): 2 | Morningglory plant response rating (morningglory; [2]): 3 | Plant response rating, Morningglory (morningglory; [3]): 4 | Plant response rating, Morningglory (morningglory; [4]): 2 | Morningglory plant response rating (morningglory; [5]): 4 | Morningglory plant response rating (0 to 10 scale) (morningglory; Preemergence, Rate 250 g/ha): 0 | Morningglory plant response rating (morningglory; [6]): 0 | Plant response rating, Morningglory (morningglory; [7]): 4 | Blackgrass plant response rating (blackgrass; [1]): 0 | Blackgrass plant response rating (blackgrass; [2]): 0 | Plant response rating, Blackgrass (blackgrass; [3]): 4 | Plant response rating, Blackgrass (blackgrass; [4]): 2 | Blackgrass plant response rating (blackgrass; [5]): 4 | Blackgrass plant response rating (0 to 10 scale) (blackgrass; Preemergence, Rate 250 g/ha): 7 | Blackgrass plant response rating (blackgrass; [6]): 7 | Plant response rating, Blackgrass (blackgrass; [7]): 3 | Cocklebur plant response rating (cocklebur; [1]): 0 | Cocklebur plant response rating (cocklebur; [2]): 2 | Plant response rating, Cocklebur (cocklebur; [3]): 2 | Plant response rating, Cocklebur (cocklebur; [4]): 0 | Cocklebur plant response rating (cocklebur; [5]): 0 | Cocklebur plant response rating (0 to 10 scale) (cocklebur; Preemergence, Rate 250 g/ha): 0 | Cocklebur plant response rating (cocklebur; [6]): 0 | Plant response rating, Cocklebur (cocklebur; [7]): 2 | Wild oats plant response rating (wild oat; [1]): 0 | Wild oats plant response rating (wild oat; [2]): 0 | Plant response rating, Wild oats (wild oat; [3]): 2 | Plant response rating, Wild oats (wild oat; [4]): 0 | Wild oats plant response rating (wild oat; [5]): 0 | Wild oats plant response rating (0 to 10 scale) (wild oat; Preemergence, Rate 250 g/ha): 0 | Wild oats plant response rating (wild oat; [6]): 0 | Plant response rating, Wild oats (wild oat; [7]): 0 | Bedstraw plant response rating (bedstraw; Postemergence, Rate 62 g/ha, scale of 0 to 10, 0 is no effect): 0 | Bedstraw plant response rating (bedstraw; Postemergence, Rate 125 g/ha, scale 0 to 10, 0 is no effect): 0 | Plant response rating, Bedstraw (bedstraw; [4]): 0 | Bedstraw plant response rating (bedstraw; Preemergence, Rate 125 g/ha, scale 0 to 10, 0 is no effect): 0 | Bedstraw plant response rating (0 to 10 scale) (bedstraw; Preemergence, Rate 250 g/ha): 0 | Bedstraw plant response rating (bedstraw; Preemergence, Rate 500 g/ha, scale 0 to 10, 0 is no effect): 0 | Soybean plant response rating (soybean; [1]): 4 | Soybean plant response rating (soybean; [2]): 5 | Plant response rating, Soybean (soybean; [3]): 5 | Plant response rating, Soybean (soybean; [4]): 0 | Soybean plant response rating (soybean; [5]): 0 | Soybean plant response rating (0 to 10 scale) (soybean; Preemergence, Rate 250 g/ha): 0 | Soybean plant response rating (soybean; [6]): 0 | Plant response rating, Soybean (soybean; [7]): 5 | B. signalgrass plant response rating (surinam grass; [1]): 0 | B. signalgrass plant response rating (surinam grass; [2]): 0 | Plant response rating, B. signalgrass (surinam grass; [3]): 7 | Plant response rating, B. signalgrass (surinam grass; [4]): 4 | B. signalgrass plant response rating (surinam grass; [5]): 8 | B. signalgrass plant response rating (0 to 10 scale, 0 is no effect, 10 is complete control) (surinam grass; Preemergence, Rate 250 g/ha): 9 | B. signalgrass plant response rating (surinam grass; Preemergence, Rate 500 g/ha, scale 0 to 10, 0 is no effect, 10 is complete control): 5 | Plant response rating, B. signalgrass (surinam grass; [7]): 2 | Redroot pigweed plant response rating (pigweed; [1]): 0 | Redroot pigweed plant response rating (pigweed; [2]): 2 | Plant response rating, Redroot pigweed (pigweed; [3]): 3 | Plant response rating, Redroot pigweed (pigweed; [4]): 2 | Redroot pigweed plant response rating (pigweed; [5]): 9 | Redroot pigweed plant response rating (0 to 10 scale) (pigweed; Preemergence, Rate 250 g/ha): 9 | Redroot pigweed plant response rating (pigweed; [6]): 9 | Plant response rating, Redroot pigweed (pigweed; [7]): 3 | Corn plant response rating (corn; [1]): 0 | Corn plant response rating (corn; [2]): 0 | Plant response rating, Corn (corn; [3]): 2 | Plant response rating, Corn (corn; [4]): 0 | Corn plant response rating (corn; [5]): 0 | Corn plant response rating (0 to 10 scale) (corn; Preemergence, Rate 250 g/ha): 0 | Corn plant response rating (corn; [6]): 9 | Plant response rating, Corn (corn; [7]): 2 | Velvetleaf plant response rating (velvetleaf; [1]): 0 | Velvetleaf plant response rating (velvetleaf; [2]): 3 | Plant response rating, Velvetleaf (velvetleaf; [3]): 4 | Plant response rating, Velvetleaf (velvetleaf; [4]): 0 | Velvetleaf plant response rating (velvetleaf; [5]): 2 | Velvetleaf plant response rating (0 to 10 scale) (velvetleaf; Preemergence, Rate 250 g/ha): 2 | Velvetleaf plant response rating (velvetleaf; [6]): 5 | Plant response rating, Velvetleaf (velvetleaf; [7]): 3 | Wheat plant response rating (wheat; [1]): 0 | Wheat plant response rating (wheat; [2]): 0 | Plant response rating, Wheat (wheat; [3]): 2 | Plant response rating, Wheat (wheat; [4]): 0 | Wheat plant response rating (wheat; [5]): 0 | Wheat plant response rating (0 to 10 scale) (wheat; Preemergence, Rate 250 g/ha): 0 | Wheat plant response rating (wheat; [6]): 4 | Plant response rating, Wheat (wheat; [7]): 0 | Nutsedge plant response rating (purple nutsedge; [1]): 0 | Nutsedge plant response rating (purple nutsedge; [2]): 0 | Plant response rating, Nutsedge (purple nutsedge; [3]): 0 | Plant response rating, Nutsedge (purple nutsedge; [4]): 0 | Nutsedge plant response rating (purple nutsedge; [5]): 0 | Nutsedge plant response rating (0 to 10 scale) (purple nutsedge; Preemergence, Rate 250 g/ha): 0 | Nutsedge plant response rating (purple nutsedge; [6]): 0 | Plant response rating, Nutsedge (purple nutsedge; [7]): 0 | Crabgrass plant response rating (crabgrass; [1]): 3 | Crabgrass plant response rating (crabgrass; [2]): 8 | Plant response rating, Crabgrass (crabgrass; [3]): 10 | Plant response rating, Crabgrass (crabgrass; [4]): 9 | Crabgrass plant response rating (crabgrass; [5]): 10 | Crabgrass plant response rating (0 to 10 scale) (crabgrass; Preemergence, Rate 250 g/ha): 10 | Crabgrass plant response rating (crabgrass; [6]): 10 | Plant response rating, Crabgrass (crabgrass; [7]): 6
